Read-outs that look alike come from different tables or passages of the source.

The results in this text go back to US10988477B2 (Merck Patent GmbH, priority 2018, dated 2021).

The target in experiment [1] is intracellular GCN2 (phosphorylation of the GCN2 substrate eIF2α) (Homo sapiens, UniProt Q9P2K8). Kind of experiment: GCN2 cellular inhibition assay (AlphaScreen SureFire P-eIF2α Ser51, borrelidin-treated U2OS cells). The format is cell-based. On the procedure: Compounds can be screened for their ability to inhibit intracellular GCN2 using an AlphaScreen assay (Perkin Elmer) to detect phosphorylation of the GCN2 substrate eIF2α in borrelidin-treated cells. U2OS cells are plated at 5,000 cells per well in 384-well white polystyrene plates (Corning 3570) in McCoy's 5 A media (GIBCO 26600-023) supplemented with 10% foetal bovine serum (SAFC 12103C), Penicillin/Streptomycin solution diluted 1:100 (Sigma P0781), and 2 mM L-glutamine (Sigma G7513), and allowed to adhere overnight at 37° C. in 5% CO2. Compounds are then added to the cell media from a final concentration of 40 μM in 4-fold serial dilutions. Borrelidin (FluoroChem M01440) is immediately added to the wells to a final concentration of 10 μM and the cells are incubated for 1 h at 37° C. in 5% CO2. After 1 h of treatment with borrelidin, the media is removed, and the cells are lysed with lysis buffer (TGR BioSciences TGRLB) at ambient temperature.
An AlphaScreen SureFire P-eIF2α (Ser51) assay kit (Perkin Elmer TGREIF2S) was used to measure levels of eIF2α phosphorylated on Serine 51. Anti-phosphorylated eIF2α Ser51 antibody-linked acceptor beads (TGR BioScience 6760617) are added to the cell homogenate (diluted 1:250 into a mixture of activation (TGR BioScience TGRAB) and reaction buffer (TGR BioScience TGREIF2S) prepared immediately before use). The plate is then incubated for 2 h at ambient temperature in the dark. Anti-eIF2α antibody-linked donor beads (TGR BioScience 6760617) were then added (diluted 1:100 in dilution buffer (TGR BioScience TGRDB) prepared immediately before use). The plate is then incubated overnight at ambient temperature in the dark.
Plates are analyzed on an Alpha Technology-compatible PHERAstar FS plate reader (BMG Labtech Version 1.14) to quantify phosphorylated eIF2α Ser51 levels. The percentage inhibition of phosphorylated eIF2α is calculated by comparison to control wells stimulated with borrelidin alone.
In general terms: Bead proximity is the source of the signal in Alpha formats.

The target in the next experiment is GCN2 kinase (Homo sapiens, UniProt Q9P2K8). In words: GCN2 enzyme inhibition assay (Transcreener ADP2 fluorescence polarization). The format is biochemical. As to conditions: 280 μM ATP; for IC50: compounds of Formula IV. The procedure, abridged:
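4 nM GCN2 + 200 μM (RS)7 + compound (0–8 μM), 10 min preinc.; start with ATP (280 μM final); 1 h, 25 °C; pH 7.5 Tris/NaCl/MgCl2/DTT; ADP FP readout; IC50, Ki(app) via tight-binding fit.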

[2] abbreviates: compounds of Formula II, biomarker assay, phosphorylated eIF2α Ser51 in borrelidin-treated U2OS cells.
The mark [3] stands for this setting: compounds of Formula II, 4 nM GCN2 kinase.
Where [4] appears, read: compounds of Formula III, U2OS cells, 10 μM borrelidin, 1 h, read-out: GCN2 Biomarker (IC50).
The mark [5] stands for this setting: compounds of Formula III, 4 nM GCN2 kinase.
[6] abbreviates: compounds of Formula V, U2OS cells, 10 μM borrelidin, 1 h, read-out: GCN2 Biomarker (IC50).
The mark [7] stands for this setting: compounds of Formula V, 4 nM GCN2 kinase.
[8] abbreviates: compounds of Formula IV, biomarker assay, phosphorylated eIF2α Ser51 in borrelidin-treated U2OS cells.
Setting [9] is: Enzyme activity for compounds of Formula IV, Ki(app), 25° C.

Sequence of intracellular GCN2 (phosphorylation of the GCN2 substrate eIF2α) (Q9P2K8 whole entry): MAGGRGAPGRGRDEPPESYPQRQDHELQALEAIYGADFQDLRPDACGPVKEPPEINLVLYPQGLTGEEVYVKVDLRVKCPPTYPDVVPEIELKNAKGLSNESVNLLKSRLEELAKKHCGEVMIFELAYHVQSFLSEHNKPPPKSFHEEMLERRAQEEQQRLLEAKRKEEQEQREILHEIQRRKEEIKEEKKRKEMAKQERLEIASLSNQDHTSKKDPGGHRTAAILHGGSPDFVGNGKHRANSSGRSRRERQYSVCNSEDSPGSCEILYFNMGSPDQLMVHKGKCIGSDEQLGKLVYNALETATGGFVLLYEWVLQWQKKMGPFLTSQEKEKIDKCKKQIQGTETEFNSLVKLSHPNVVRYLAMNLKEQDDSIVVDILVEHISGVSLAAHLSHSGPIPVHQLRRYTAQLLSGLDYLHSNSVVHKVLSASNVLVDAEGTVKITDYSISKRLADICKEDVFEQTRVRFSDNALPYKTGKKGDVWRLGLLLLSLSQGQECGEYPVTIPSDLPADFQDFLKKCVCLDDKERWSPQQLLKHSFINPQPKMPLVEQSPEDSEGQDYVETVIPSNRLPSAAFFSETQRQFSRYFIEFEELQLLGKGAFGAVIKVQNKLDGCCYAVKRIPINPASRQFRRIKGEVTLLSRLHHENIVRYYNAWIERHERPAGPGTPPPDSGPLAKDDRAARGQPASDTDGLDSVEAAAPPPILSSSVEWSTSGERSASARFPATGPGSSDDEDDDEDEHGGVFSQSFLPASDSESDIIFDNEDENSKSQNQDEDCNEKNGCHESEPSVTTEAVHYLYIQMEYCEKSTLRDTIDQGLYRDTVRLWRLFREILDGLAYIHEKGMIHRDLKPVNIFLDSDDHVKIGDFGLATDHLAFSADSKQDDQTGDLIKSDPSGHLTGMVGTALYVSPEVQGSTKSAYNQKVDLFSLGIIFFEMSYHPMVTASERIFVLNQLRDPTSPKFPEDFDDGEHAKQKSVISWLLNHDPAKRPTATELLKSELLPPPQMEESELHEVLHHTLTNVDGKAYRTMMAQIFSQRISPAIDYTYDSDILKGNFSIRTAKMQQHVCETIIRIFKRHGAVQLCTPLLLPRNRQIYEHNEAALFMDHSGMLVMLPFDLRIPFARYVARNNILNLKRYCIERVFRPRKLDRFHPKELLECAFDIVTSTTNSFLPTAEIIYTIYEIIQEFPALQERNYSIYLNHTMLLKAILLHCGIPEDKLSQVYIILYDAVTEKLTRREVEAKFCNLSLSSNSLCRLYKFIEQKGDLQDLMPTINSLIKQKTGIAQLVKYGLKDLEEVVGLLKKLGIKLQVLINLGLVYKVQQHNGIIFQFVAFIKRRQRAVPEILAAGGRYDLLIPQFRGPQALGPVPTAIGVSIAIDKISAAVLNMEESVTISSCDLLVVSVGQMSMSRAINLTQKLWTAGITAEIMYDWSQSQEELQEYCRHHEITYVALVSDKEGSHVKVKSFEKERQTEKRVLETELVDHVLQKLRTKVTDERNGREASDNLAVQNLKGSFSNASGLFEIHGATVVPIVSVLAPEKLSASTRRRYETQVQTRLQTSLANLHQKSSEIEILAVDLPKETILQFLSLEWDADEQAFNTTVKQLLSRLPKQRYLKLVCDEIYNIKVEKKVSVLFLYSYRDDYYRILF
Sequence of GCN2 kinase (Q9P2K8 whole entry): as above

For orientation: IC50 means the concentration that inhibits the measured activity by half. As for `CS(=O)(=O)N1CC2(CCCN(c3ccnc(-c4cnc5ccc(C(F)F)nn45)c3)C2)C1`, in experiment [1] (setting [2]), the IC50 was below 500 nM. The molecule also displayed a Ki on GCN2 kinase (setting [3]) below 10 nM.

Regarding `CC(=O)N1CCN(c2cc(-c3cnn4ccc(C(F)F)nc34)ccn2)CC1`, the IC50 in experiment [1] (setting [4]) lay within 500 to 5000 nM. Besides, the Ki on GCN2 kinase (setting [5]) is 10 to 1000 nM.

As for `CC(=O)N1CCN(c2cc(-c3cnn4ccc(C(F)(F)F)nc34)ccn2)CC1`, in experiment [1] (setting [4]), the IC50 was above 5000 nM. At GCN2 kinase (setting [5]), this molecule displayed a Ki of 10 to 1000 nM.

For the molecule `CC1C(CNS(C)(=O)=O)N(C)CCN1c1cc(-c2cnc3ccc(C(F)F)nn23)ncn1` (mixture of isomers) [II-312, N-((4-(6-(6-(Difluoromethyl)imidazo[1,2-b]pyridazin-3-yl)pyrimidin-4-yl)-1,3-dimethylpiperazin-2-yl)methyl)methanesulfonamide], the IC50 in experiment [1] (setting [2]) is below 500 nM. Moreover, the Ki at GCN2 kinase (setting [3]) is below 10 nM.

Regarding `CP(C)(=O)C1CC(c2cn[nH]c2)CN(c2ccnc(-c3cnc4sc(C(F)(F)F)cn34)n2)C1` (racemic) [Compound V-5, 5-[4-[3-Dimethylphosphoryl-5-(1H-pyrazol-4-yl)-1-piperidyl]pyrimidin-2-yl]-2-(trifluoromethyl)imidazo[2,1-b]thiazole], in experiment [1] (setting [6]), the 50% inhibitory concentration (IC50) is above 5000 nM. The Ki at GCN2 kinase (setting [7]) lay in the range of 10 to 100 nM.

With `CS(=N)(=O)CC1CCCN(c2ccnc(-c3cnc4sc(C(F)(F)F)cn34)n2)C1` (racemic) [Compound V-18, Imino(methyl)((1-(2-(2-(trifluoromethyl)imidazo[2,1-b]thiazol-5-yl)pyrimidin-4-yl)piperidin-3-yl)methyl)-λ^6-sulfanone], the IC50 in experiment [1] (setting [6]) is above 5000 nM. Further, the Ki at GCN2 kinase (setting [7]) fell in the range of 100 to 1000 nM.

With `CS(=N)(=O)CC1CCCN(c2ccnc(-c3cnc4sc(C(F)(F)F)cn34)n2)C1` (racemic) [Compound V-19, Imino(methyl)((1-(2-(2-(trifluoromethyl)imidazo[2,1-b]thiazol-5-yl)pyrimidin-4-yl)piperidin-3-yl)methyl)-λ^6-sulfanone], in experiment [1] (setting [6]), the IC50 was above 5000 nM. Moreover, the Ki on GCN2 kinase (setting [7]) is 100 to 1000 nM.

With `CC1(F)CCN(c2cc(-c3cnc4ccc(C(F)F)nn34)ncn2)CC1CNS(C)(=O)=O` (racemic) [II-350, N-((1-(6-(6-(Difluoromethyl)imidazo[1,2-b]pyridazin-3-yl)pyrimidin-4-yl)-4-fluoro-4-methylpiperidin-3-yl)methyl)methanesulfonamide], the IC50 in experiment [1] (setting [2]) was below 500 nM. This molecule showed a Ki on GCN2 kinase (setting [3]) below 10 nM.

For `CC1CC(C(N)=O)C(C)N(c2cc(-c3cnc4ccc(C(F)(F)F)nn34)ncn2)C1` (racemic) [II-719, 2,5-Dimethyl-1-[6-[6-(trifluoromethyl)imidazo[1,2-b]pyridazin-3-yl]pyrimidin-4-yl]piperidine-3-carboxamide], the IC50 in experiment [1] (setting [2]) is 500 to 5000 nM. The same molecule came in with a Ki on GCN2 kinase (setting [3]) of 10 to 1000 nM.

In experiment [1] (setting [2]), `CC1CC(C(N)=O)C(C)N(c2cc(-c3cnc4ccc(C(F)(F)F)nn34)ncn2)C1` (racemic) [II-720, 2,5-Dimethyl-1-[6-[6-(trifluoromethyl)imidazo[1,2-b]pyridazin-3-yl]pyrimidin-4-yl]piperidine-3-carboxamide] displayed an IC50 of 500 to 5000 nM. The Ki on GCN2 kinase (setting [3]) is 10 to 1000 nM.

`C[C@@H]1CN(c2ccnc(-c3cnc4cnc(C(F)(F)F)cn34)n2)C[C@@H](c2cn[nH]c2)O1` (racemic) [IV-11, Trans-2-Methyl-6-(1H-pyrazol-4-yl)-4-(2-(6-(trifluoromethyl)imidazo[1,2-a]pyrazin-3-yl)pyrimidin-4-yl)morpholine] came in with an IC50 in experiment [1] (setting [8]) of 500 to 5000 nM. Moreover, at GCN2 kinase (setting [9]), the Ki is 10 to 100 nM.

`C[C@@H]1CN(c2ccnc(-c3cnc4cnc(C(F)(F)F)cn34)n2)C[C@H](c2cn[nH]c2)O1` (racemic) [IV-12, Cis-2-Methyl-6-(1H-pyrazol-4-yl)-4-(2-(6-(trifluoromethyl)imidazo[1,2-a]pyrazin-3-yl)pyrimidin-4-yl)morpholine] showed an IC50 in experiment [1] (setting [8]) below 500 nM. At GCN2 kinase (setting [9]), the Ki was below 10 nM.

On GCN2 kinase (setting [9]), `CS(C)(=O)=NCC(=O)N[C@H]1CCCN(c2ccnc(-c3cnc4cnc(C(F)(F)F)cn34)n2)C1` [IV-747] gave a Ki above 1000 nM.

Regarding `O=C(N[C@H]1CCCN(c2ccnc(-c3cnc4cnc(C(F)(F)F)cn34)n2)C1)c1ccoc1` [IV-748], the Ki at GCN2 kinase (setting [9]) is above 1000 nM.

`FC(F)(F)c1cn2c(-c3nccc(N4CCc5sccc5C4)n3)cnc2cn1` [IV-749] gave a Ki on GCN2 kinase (setting [9]) above 1000 nM.

At GCN2 kinase (setting [9]), `CC(C)(C)n1cc(C(=O)N[C@H]2CCCN(c3ccnc(-c4cnc5cnc(C(F)(F)F)cn45)n3)C2)nn1` [IV-750] displayed a Ki above 1000 nM.

Molecule `O=C(N[C@H]1CCCN(c2ccnc(-c3cnc4cnc(C(F)(F)F)cn34)n2)C1)c1c[nH]cn1` [IV-751] registered a Ki on GCN2 kinase (setting [9]) above 1000 nM.

As to `Cc1n[nH]cc1[C@H]1C[C@H](C)CN(c2nccc(-c3cnc4cnc(C(F)(F)F)cn34)n2)C1` [IV-755, 3-(2-((3S,5R)-3-methyl-5-(3-methyl-1H-pyrazol-4-yl)piperidin-1-yl)pyrimidin-4-yl)-6-(trifluoromethyl)imidazo[1,2-a]pyrazine], at GCN2 kinase (4 nM GCN2 kinase), the IC50 was in the range of 10 to 1000 nM.

Regarding `Cc1n[nH]cc1[C@@H]1C[C@@H](C)CN(c2nccc(-c3cnc4cnc(C(F)(F)F)cn34)n2)C1` [IV-756, -(2-((3R,5S)-3-methyl-5-(3-methyl-1H-pyrazol-4-yl)piperidin-1-yl)pyrimidin-4-yl)-6-(trifluoromethyl)imidazo[1,2-a]pyrazine], the half-inhibitory concentration (IC50) on GCN2 kinase (4 nM GCN2 kinase) is 10 to 1000 nM.

At GCN2 kinase (4 nM GCN2 kinase), `Cc1n[nH]cc1[C@@H]1C[C@H](C)CN(c2nccc(-c3cnc4cnc(C(F)(F)F)cn34)n2)C1` [IV-759, 3-(2-((3S,5S)-3-methyl-5-(3-methyl-1H-pyrazol-4-yl)piperidin-1-yl)pyrimidin-4-yl)-6-(trifluoromethyl)imidazo[1,2-a]pyrazine] registered an IC50 of 10 to 1000 nM.

Consider `Cc1n[nH]cc1[C@@H]1CN(c2ccnc(-c3cnc4cnc(C(F)(F)F)cn34)n2)C[C@@H](C)O1` [IV-760, (2R,6R)-2-methyl-6-(3-methyl-1H-pyrazol-4-yl)-4-(2-(6-(trifluoromethyl)imidazo[1,2-a]pyrazin-3-yl)pyrimidin-4-yl)morpholine], for which the half-maximal inhibitory concentration (IC50) against GCN2 kinase (4 nM GCN2 kinase) was in the range of 10 to 1000 nM.

On to `Cc1n[nH]cc1[C@H]1CN(c2ccnc(-c3cnc4cnc(C(F)(F)F)cn34)n2)C[C@H](C)O1` [IV-761, (2S,6S)-2-methyl-6-(3-methyl-1H-pyrazol-4-yl)-4-(2-(6-(trifluoromethyl)imidazo[1,2-a]pyrazin-3-yl)pyrimidin-4-yl)morpholine], for which, on GCN2 kinase (4 nM GCN2 kinase), the IC50 was in the range of 10 to 1000 nM.

Regarding `C[C@H]1C[C@H](c2cn[nH]c2)CN(c2ccnc(-c3cnc4cnc(C(F)(F)F)cn34)n2)C1` [IV-768, 3-(4-((3S,5R)-3-methyl-5-(1H-pyrazol-4-yl)piperidin-1-yl)pyrimidin-2-yl)-6-(trifluoromethyl)imidazo[1,2-a]pyrazine], at GCN2 kinase (4 nM GCN2 kinase), the IC50 fell in the range of 10 to 1000 nM.

Take `C[C@@H]1C[C@H](N=S(C)(C)=O)CN(c2ccnc(-c3cnc4cnc(Cl)cn34)n2)C1` [IV-773, (((3S,5R)-1-(2-(6-chloroimidazo[1,2-a]pyrazin-3-yl)pyrimidin-4-yl)-5-methylpiperidin-3-yl)imino)dimethyl-16-sulfanone]: on GCN2 kinase (4 nM GCN2 kinase), the concentration for half-maximal inhibition (IC50) fell in the range of 10 to 1000 nM.

`C[C@H]1[C@@H](c2cn[nH]c2)N(C(=O)C2CC2)[C@@H](C)CN1c1ccnc(-c2cnc3cnc(C(F)(F)F)cn23)n1` [IV-778, cyclopropyl((2R,3S,6S)-3,6-dimethyl-2-(1H-pyrazol-4-yl)-4-(2-(6-(trifluoromethyl)imidazo[1,2-a]pyrazin-3-yl)pyrimidin-4-yl)piperazin-1-yl)methanone] yielded an IC50 on GCN2 kinase (4 nM GCN2 kinase) of 10 to 1000 nM.

In the case of `C[C@H]1[C@@H](c2cn[nH]c2)N(C(=O)c2cnoc2)[C@@H](C)CN1c1ccnc(-c2cnc3cnc(C(F)(F)F)cn23)n1` [IV-779, ((2R,3S,6S)-3,6-dimethyl-2-(1H-pyrazol-4-yl)-4-(2-(6-(trifluoromethyl)imidazo[1,2-a]pyrazin-3-yl)pyrimidin-4-yl)piperazin-1-yl)(isoxazol-4-yl)methanone], the half-inhibitory concentration (IC50) against GCN2 kinase (4 nM GCN2 kinase) lay within 10 to 1000 nM.
